# What was measured:
# [1] = Residual PFA over time in dosed wastewater samples (CHEMetrics test kit); type: physicochemical; details: doses 0.5, 1 and 2 ppm; S2 samples versus S1 samples; FIG. 5
# Procedure: Varying doses of PFA (0.5 ppm, 1 ppm, and 2 ppm) were dosed into S1 and S2 wastewater samples as described in Example 1. Residual levels of PFA were measured using a CHEMetrics test kit for PAA with vacuum ampules detecting in the 0-5 ppm range (Maffettone, 2020). PFA values were obtained by multiplying the PAA results by 0.82 (Maffettone, 2020). The factor of 0.82 for conversion of PAA to PFA corresponds to the molecular weight ratio of PFA (62.02 g/mol) to PAA (76.05 g/mol). Due to the fast degradation of PFA, residual PFA concentrations were determined immediately following the sample collection.
# [2] = system: E. coli; experiment: Disinfection efficacy of PFA in wastewater samples, colony count (USEPA method 10029); type: cell-based; details: S2 (50% secondary + 50% primary-only wastewater, 30 min contact) versus S1 (secondary-treated wastewater, 90 min contact); FIG. 4B
# Procedure: (§1) The disinfection efficacy of PFA against fecal coliform and E. coli was assessed in wastewater (WW) that had undergone secondary treatment (S1), and in a mixed wastewater sample comprising 50% wastewater that had undergone secondary treatment and 50% wastewater that had undergone primary treatment without secondary treatment (S2). The S2 sample would have inevitably contained higher levels of TSS, increased organic matter and increased microbial content.
# (§2) WW samples were collected and stored at 4° C. […] until use (within 1 to 3 days). A PFA solution was prepared immediately prior to use by mixing 2.5 mL of 35% hydrogen peroxide with 2.5 mL of DEX®-A375 (a mixture of formic and sulfuric acids). The resultant mixture was incubated for 5 minutes at 4° C. and subsequently for 25 minutes at room temperature to complete formation of the 9.5% PFA solution. The 9.5% PFA solution was diluted to 950 mg/L by adding 0.2 mL of the 9.5% PFA solution to 19.8 mL distilled water.
# (§3) WW samples were dosed with PFA to determine efficacy after set contact times. A shorter 30 minute contact time was used for the S2 samples to emulate the shorter contact times that would occur in a CSO event when the volume and rate of flow of water through the WW treatment system is increased. […] After incubation, the number of colonies was counted. […]
# [3] = system: fecal coliform; experiment: as above; type: cell-based; details: S2 (50% secondary + 50% primary-only wastewater, 30 min contact) versus S1 (secondary-treated wastewater, 90 min contact); FIG. 4A
# Procedure: as §1, §2, §3
smiles,measurement,setting,value
"O=COO [PFA, performic acid]",residual PFA levels over time (degradation in wastewater),[1],decrease more rapidly over time in S2 samples than in S1 samples
same,disinfection efficacy against E. coli,[2],significantly reduced
same,disinfection efficacy against fecal coliform,[3],significantly reduced

# Source: US20250197248A1, “WATER TREATMENT SYSTEM” (KEMIRA OYJ, priority 2022, published 2025)
